The record followed here is ChEMBL document CHEMBL5661983, “The selective anaplastic lymphoma receptor tyrosine kinase inhibitor ASP3026 induces tumor regression and prolongs survival in non-small cell lung cancer model mice” (Mol Cancer Ther, 2014).

Calls of active or inactive are those of the source. The rule behind the calls is not given here.

Data set [1] concerns NCI-H2228. In words: Antitumor activity against human NCI-H2228 cells xenografted in NOD.CB17-Prkdcscid/J mouse assessed as reduction in tumor volume at 50 mg/kg, iv administered daily for 5 days. It counts as functional, organism-based. The conditions noted are these: time 5.0 day. A general note: In xenograft studies the graft and the host belong to different species.
Data set [2] in a line: Toxicity in human NCI-H2228 cell xenografted NOD.CB17-Prkdcscid/J mouse assessed as body weight loss at 50 mg/kg, iv administered once daily for 5 days. It counts as organism-based. The conditions noted are these: in vivo, 120 h, time 5 day.
Data set [3] concerns NCI-H2228. In words: Antitumor activity against human NCI-H2228 cells xenografted in NOD.CB17-Prkdcscid/J mouse assessed as increase in tumor regression at 12 mg/kg, iv administered daily for 5 days. It is filed as functional, organism-based. Conditions: time 5.0 day.

On to `Nc1nc2[nH]cc(CCc3ccc(C(=O)N[C@@H](CCC(=O)O)C(=O)O)cc3)c2c(=O)[nH]1` [PEMETREXED], for which the result in data set [1] was Active. In addition, the Activity result in data set [2] was “Toxic”.
Regarding `CC(=O)O[C@H]1C(=O)[C@@]2(C)[C@H]([C@H](OC(=O)c3ccccc3)[C@]3(O)C[C@H](OC(=O)[C@H](O)[C@@H](NC(=O)c4ccccc4)c4ccccc4)C(C)=C1C3(C)C)[C@]1(OC(C)=O)CO[C@@H]1C[C@@H]2O`, in data set [3], the outcome was Active.
